Measurements published in US9283279B2, “Targeted polymeric conjugates and uses thereof” (priority 2011, dated 2016).

What was measured:
[1] = system: circulating endothelial cells (CEC) and circulating endothelial progenitor (CEP); conditions: day 11 of treatment
[2] = system: 4T1-mCherry tumors in the tibia; assay: Microvessel density (CD34 staining), 4T1-mCherry model; format: in vivo, Balb/c female mice; conditions: compared to saline-treated control group
Method: Immunohistochemistry of tumors in the tibia was performed using samples fixed with 4% paraformaldehyde, following decalcification in EDTA and paraffin embedding by the standard procedure. Paraffin sections of 4 μm were de-paraffinized, rehydrated, and stained by hematoxylin and eosin (H&E). For CD34 staining, slides were deparaffinized and pre-treated with 10 mM citrate buffer, pH=6.0, for 20 minutes in a steam pressure cooker (Decloaking Chamber, BioCare Medical, Walnut Creek, Calif.).
All further steps were performed at room temperature in a hydrated chamber. Slides were covered with Peroxidase Block (Merck, Germany) for 10 minutes to quench endogenous peroxidase activity, followed by incubation with 2% of horse serum in 50 mM Tris-HCl, pH 7.4, for 30 minutes to block non-specific binding sites. Primary rat anti-murine CD34 antibody (MEC 14.7 1:50 dilution; Abcam, Cambridge, Mass.) was applied in 1% rabbit serum albumin in Tris-HCl, pH 7.4 at 4° overnight. Slides were washed in 50 mM TrisHCl, pH 7.4 and rabbit anti-rat antibody (1:750 dilution; Vector Laboratories, Calif., USA) was applied for 30 minutes. Following further washing, immunoperoxidase staining was developed using HistoMark TrueBlue peroxidase system (KPL, USA) per the manufacturer instructions and counterstained with safranin.

[3] = system: 4T1-mCherry murine mammary adenocarcinoma in the tibia; format: in vivo, Balb/c female mice; conditions: 4T1-mCherry tumors in the tibia
[4] = blood samples on day 11; 15 mg/kg PTX or equivalent
Method: Samples were counted no longer than five minutes after blood was drawn from mice. Ten μl of blood samples were mixed with 90 μl of track solution (1% acetic acid in DDW), and cells were counted by a Z1 Coulter® Particle Counter (Beckman Coulter™). Data is expressed as mean±s.e.m.

[5] = system: PC3 human prostate adenocarcinoma cells; assay: PC3 cell viability / proliferation assay (MTT); format: cell-based; conditions: PC-3, 72 hours incubation
Method: PC3 cells were plated onto 96 well plate (5×10^3 cells/well) in DMEM supplemented with 5% FBS and incubated for 24 h (37° C.; 5% CO2). […] Following incubation, PC3 cells were counted by MTT.

[6] = Pharmacokinetic studies in mice; format: in vivo, female Balb/C mice
Method: The mice were randomly divided in three groups of 10 animals. […] To 50 μL of plasma, 350 μL of CH3CN was added for protein precipitation and the resulting mixture was centrifuged at 20,000 g for 5 minutes. A 300 μL aliquot of the supernatant was collected and freeze-dried. The residue was dissolved in 50 μL of CH3OH and analyzed by RP-HPLC under the condition reported hereinabove.

[7] = female, mouse, plasma, iv, i.v. 10 mg/Kg PTX equiv., Balb/C mice

CC(=O)O[C@H]1C(=O)[C@@]2(C)[C@H]([C@H](OC(=O)c3ccccc3)[C@]3(O)C[C@H](OC(=O)[C@H](O)[C@@H](NC(=O)c4ccccc4)c4ccccc4)C(C)=C1C3(C)C)[C@]1(OC(C)=O)CO[C@@H]1C[C@@H]2O [PTX, Paclitaxel]
viable CEP levels [1]: increase
reduction in micro-vessel density (MVD) [2]: about 50%
H&E histology of the tibia [3]: tumor filled the bone marrow space and destroyed both trabecular and cortical bone
WBC counts [4]: significant decrease
IC50 [5]: 25 to 60 nM
Vd [6, 7]: 0.161 ± 0.0021 L
clearance [6, 7]: 7.4 ± 1.5 mL/min
half-life ([6]; female, mouse, plasma, iv, i.v. 10 mg/Kg PTX equiv., Balb/C mice, read-out: T1/2β (elimination half-life)): 15.1 min
T1/2α ([6]; i.v. 10 mg/Kg PTX equiv., Balb/C mice): 1.3 ± 0.3
time at which PTX was not detectable ([6]; serum PTX by RP-HPLC, i.v. 10 mg/Kg): 60 min
